Experimental data from paper PMC5778071, “Development of matrix metalloproteinase-targeted probes for lung inflammation detection with positron emission tomography” (Scientific Reports, 2018).

How the values were obtained:
MMP-9 = system: MMP-9; design: method as in PMID 25438884; details: fluorogenic inhibition assay; cited from earlier work
recombinant human MMP-12 = target: T1, recombinant human MMP-12 (Homo sapiens, UniProt P39900); assay: Competitive fluorogenic enzyme activity assay, MMP-12; assay type: biochemical; details: fluorogenic substrate 5 μM, 5 nM enzyme, 30 min; read-out: IC50 toward MMP-12
T1 construct: purchased R&D Systems 917-MP
Experimental: Determination of the IC50 toward human MMP-2, MMP-9, MMP-12 and MMP-13 was performed by a competitive enzyme activity assay according to a literature procedure. […] The increase in fluorescence over time was measured using a SpectraMax M2e microplate reader (Molecular Devices Inc., CA, USA) with an excitation wavelength of 325 nm and an emission wavelength of 395 nm. The fluorescence intensity after 30 min was plotted as a function of the concentration of each of the compounds on a logarithmic scale to produce an inhibition curve that was subsequently fit with a sigmoidal function by a least squares method. The IC50 values were calculated from the inhibition curves using GraphPad Prism 6 (GraphPad Software, Inc., CA, USA).

recombinant human MMP-9 = target: T2, recombinant human MMP-9 (Homo sapiens, UniProt P14780); assay: Competitive fluorogenic enzyme activity assay, MMP-9; assay type: biochemical; details: fluorogenic substrate 5 μM, 5 nM enzyme, 30 min; read-out: IC50 toward MMP-9
T2 construct: purchased R&D Systems 911-MP
Experimental: (§1) Determination of the IC50 toward human MMP-2, MMP-9, MMP-12 and MMP-13 was performed by a competitive enzyme activity assay according to a literature procedure. The assay was performed by incubating 5 μM of the synthesized fluorogenic peptide substrate Mca-Pro-Leu-Gly-Leu-Dpa(Dnp)-Ala-Arg-NH2 with 5 nM recombinant human MMP-2 (AS72005, Anaspec Inc., CA, USA), MMP-9 (911-MP, R&D Systems, MN, USA), MMP-12 (917-MP, R&D Systems) and MMP-13 (AS72011, Anaspec) along with various concentrations of ML5, I-ML5, PFB, PFP, IPFB, and IPFP (0.2–365 nM) in a buffer (pH 7.5, 50 mM tris(hydroxymethyl)aminomethane, 10 mM calcium chloride, 150 mM sodium chloride, and 0.01% Brij-35) containing 5% dimethyl sulfoxide. The increase in fluorescence over time was measured using a SpectraMax M2e microplate reader (Molecular Devices Inc., CA, USA) with an excitation wavelength of 325 nm and an emission wavelength of 395 nm. The fluorescence intensity after 30 min was plotted as a function of the concentration of each of the compounds on a logarithmic scale to produce an inhibition curve that was subsequently fit with a sigmoidal function by a least squares method. The IC50 values were calculated from the inhibition curves using GraphPad Prism 6 (GraphPad Software, Inc., CA, USA).

MMP-12 = system: MMP-12; design: method as in PMID 25438884; details: fluorogenic inhibition assay; cited from earlier work
recombinant human MMP-13 = target: T3, recombinant human MMP-13 (Homo sapiens, UniProt P45452); assay: Competitive fluorogenic enzyme activity assay, MMP-13; assay type: biochemical; details: fluorogenic substrate 5 μM, 5 nM enzyme, 30 min; read-out: IC50 toward MMP-13
T3 construct: purchased Anaspec AS72011
Experimental: as §1

recombinant human MMP-2 = target: T4, recombinant human MMP-2 (Homo sapiens, UniProt P08253); assay: Competitive fluorogenic enzyme activity assay, MMP-2; assay type: biochemical; details: fluorogenic substrate 5 μM, 5 nM enzyme, 30 min; read-out: IC50 toward MMP-2
T4 construct: purchased Anaspec Inc. AS72005
T4 sequence (P08253 110-660): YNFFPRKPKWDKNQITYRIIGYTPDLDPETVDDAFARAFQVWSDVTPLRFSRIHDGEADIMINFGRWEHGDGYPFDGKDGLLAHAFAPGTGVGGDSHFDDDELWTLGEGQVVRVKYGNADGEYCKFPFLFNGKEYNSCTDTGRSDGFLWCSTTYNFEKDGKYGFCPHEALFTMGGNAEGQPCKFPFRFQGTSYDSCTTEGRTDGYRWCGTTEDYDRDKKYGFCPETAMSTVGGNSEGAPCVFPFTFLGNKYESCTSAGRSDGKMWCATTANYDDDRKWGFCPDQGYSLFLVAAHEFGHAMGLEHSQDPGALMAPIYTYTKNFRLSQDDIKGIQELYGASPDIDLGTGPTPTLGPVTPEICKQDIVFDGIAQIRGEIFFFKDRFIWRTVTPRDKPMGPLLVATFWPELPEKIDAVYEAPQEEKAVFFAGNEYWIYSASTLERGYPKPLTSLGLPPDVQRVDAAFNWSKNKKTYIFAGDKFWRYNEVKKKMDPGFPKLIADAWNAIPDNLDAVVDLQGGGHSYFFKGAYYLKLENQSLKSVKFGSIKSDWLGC
Experimental: as §1

[1] = design: method as in PMID 25822732; details: cited from earlier work

T1 sequence (P39900 106-470): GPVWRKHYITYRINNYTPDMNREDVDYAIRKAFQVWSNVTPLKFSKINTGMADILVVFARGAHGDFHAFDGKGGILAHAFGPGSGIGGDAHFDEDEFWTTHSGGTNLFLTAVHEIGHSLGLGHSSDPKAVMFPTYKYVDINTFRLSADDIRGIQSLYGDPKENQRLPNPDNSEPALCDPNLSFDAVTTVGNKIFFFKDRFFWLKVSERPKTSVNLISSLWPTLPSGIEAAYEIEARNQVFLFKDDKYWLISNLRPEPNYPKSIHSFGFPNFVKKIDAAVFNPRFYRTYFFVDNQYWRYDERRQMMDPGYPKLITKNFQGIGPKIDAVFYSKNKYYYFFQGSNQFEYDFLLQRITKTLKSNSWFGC
T2 sequence (P14780 94-707): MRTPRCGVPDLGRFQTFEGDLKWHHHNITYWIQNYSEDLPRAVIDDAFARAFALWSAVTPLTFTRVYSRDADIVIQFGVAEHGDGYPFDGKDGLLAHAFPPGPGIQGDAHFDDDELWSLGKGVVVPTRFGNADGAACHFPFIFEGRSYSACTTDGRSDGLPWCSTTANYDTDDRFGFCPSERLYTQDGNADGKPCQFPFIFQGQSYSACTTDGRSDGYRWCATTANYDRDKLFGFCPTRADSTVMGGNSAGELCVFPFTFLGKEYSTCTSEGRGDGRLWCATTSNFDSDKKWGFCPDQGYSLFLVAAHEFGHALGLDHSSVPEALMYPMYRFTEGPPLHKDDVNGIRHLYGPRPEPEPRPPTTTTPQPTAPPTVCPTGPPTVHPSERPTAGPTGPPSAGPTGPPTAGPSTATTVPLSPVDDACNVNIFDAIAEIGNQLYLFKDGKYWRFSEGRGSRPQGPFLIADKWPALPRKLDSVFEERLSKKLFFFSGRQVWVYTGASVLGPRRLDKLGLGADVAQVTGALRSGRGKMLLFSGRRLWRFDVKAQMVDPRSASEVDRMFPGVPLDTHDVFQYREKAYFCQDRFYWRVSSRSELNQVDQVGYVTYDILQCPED

| SMILES | IC50 (MMP-9) [nM] | IC50 (recombinant human MMP-12) [nM] | IC50 (recombinant human MMP-9) [nM] | IC50 (MMP-12) [nM] | IC50 (recombinant human MMP-13) [nM] | IC50 (recombinant human MMP-2) [nM] | accumulation ratio of lung to liver [1] |
| --- | --- | --- | --- | --- | --- | --- | --- |
| CC(C)C[C@H](CC(=O)NO)C(=O)N[C@@H](Cc1ccccc1)C(=O)N[C@@H](CCCCN)C(N)=O [ML5, reference compound] | 19.5 | 2.8 ± 0.4 | 37.9 ± 5.2 | 2 | 22.4 ± 8.1 | 9.6 ± 4.7 | – |
| CC(C)C[C@H](CC(=O)NO)C(=O)N[C@@H](Cc1ccccc1)C(=O)N[C@@H](CCCCNC(=O)c1ccc([18F])cc1)C(N)=O [^18F-FB-ML5] | – | – | – | – | – | – | < 0.1 |
